In US8168232B2, “Formulations and methods of using nitric oxide mimetics in cancer treatment” (priority 2000, dated 2012):

Legend:
[1] = system: MDA-MB-231 breast cancer cells; assay: Colony formation assay for doxorubicin resistance, MDA-MB-231 monolayer; format: cell-based, human; conditions: 200 μM doxorubicin
Experimental: The resistance of MDA-MB-231 breast cancer cells to doxorubicin was determined following culture in 20% or 1% oxygen by counting the number of colonies formed. MDA-MB-231 cells were incubated in 1% O2 or 20% O2 for 24 hours. […] The cells were washed and then plated onto 35 mm plates at different dilutions. The cells were incubated for an additional 1-2 weeks in order to allow cell colonies to grow. At the end of the incubation period, the cells were fixed with Carnoy's fixative, stained with Crystal violet, rinsed and allowed to air dry. Colonies were counted visually. The surviving cells under each condition was determined by counting the number of colonies and was expressed as a fraction of the number of colonies that survived without doxorubicin exposure.
Using human MDA-MB-231 breast carcinoma cells in clonogenic assays, survival was determined following doxorubicin exposure and NO mimetic administration to both monolayer and spheroid cultures. […] However, these NO mimetics effectively attenuated the resistance to 200 μM doxorubicin associated with 3D culture by 90% and 30% respectively.

[2] = system: human PC-3 prostatic adenocarcinoma cells; conditions: 0.5% vs 20% O2; one-hour doxorubicin
Experimental: (§1) Low tumor oxygenation (hypoxia) correlates with increased metastasis and resistance to radiotherapy and chemotherapy. […] This was followed by a one-hour incubation with doxorubicin and survival was assessed by colony formation assays. Western blot analysis was used to measure NO synthase (NOS) protein levels in cells cultured in 20% and 0.5% O2.

[3] = system: mouse TRAMP-C2 prostatic adenocarcinoma cells; conditions: 0.5% vs 20% O2; one-hour doxorubicin
Experimental: as §1

[4] = system: MDA-MB-231 breast carcinoma spheroids; assay: Clonogenic survival of MDA-MB-231 spheroids after doxorubicin; format: cell-based, human; conditions: 200 μM doxorubicin
Experimental: Following initial cell plating, spheroids formed for 24, 48, 72, 96 or 120 h. At each time point, spheroids were exposed to 200 μM of doxorubicin, then disaggregated and plated for assessment of colony formation (survival).
Spheroids were allowed to form for 72 h. DETA/NO was applied for the final 24 h of spheroid formation. Spheroids were then exposed to doxorubicin for 1 h, prior to disaggregation and plating for assessment of survival by clonogenic assay.
Using human MDA-MB-231 breast carcinoma cells in clonogenic assays, survival was determined following doxorubicin exposure and NO mimetic administration to both monolayer and spheroid cultures.

COc1cccc2c1C(=O)c1c(O)c3c(c(O)c1C2=O)C[C@@](O)(C(=O)CO)C[C@@H]3O[C@H]1C[C@H](N)[C@H](O)[C@H](C)O1 [doxorubicin]
survival in monolayer culture [1]: zero | increased survival following doxorubicin after pre-incubation under hypoxia [2]: up to 8 fold | increased survival following doxorubicin after pre-incubation under hypoxia [3]: up to 12 fold | decrease in survival of tumor cells cultured as spheroids [4]: 90%
